Test results as given in US9029545B2, “Thienopyridine NOX2 inhibitors” (GlaxoSmithKline Intellectual Property Limited, priority 2009, dated 2015).
Structures can show the parent of a compound that is named as a salt.

biological target: T1, NOX2 in differentiated HL60 cells (Homo sapiens, UniProt P04839); assay: HL60 cell-based assays (Assay 1 Oxyburst green BSA fluorescence, Assay 2 L-012 luminescence); result stated for at least one of them; conditions: PMA-stimulated superoxide production in differentiated HL60 cells; at least one of Oxyburst and L012 assays; read-out: pIC50 in at least one of the HL60 assays (converted)
T1 construct: Differentiation of HL-60 cells to granulocytes increases NOX2 expression; endogenous in cells; host or cells: HL60 cells differentiated to neutrophil-like cells with 1.3% DMSO and stimulated with PMA
T1 sequence (P04839 1-570): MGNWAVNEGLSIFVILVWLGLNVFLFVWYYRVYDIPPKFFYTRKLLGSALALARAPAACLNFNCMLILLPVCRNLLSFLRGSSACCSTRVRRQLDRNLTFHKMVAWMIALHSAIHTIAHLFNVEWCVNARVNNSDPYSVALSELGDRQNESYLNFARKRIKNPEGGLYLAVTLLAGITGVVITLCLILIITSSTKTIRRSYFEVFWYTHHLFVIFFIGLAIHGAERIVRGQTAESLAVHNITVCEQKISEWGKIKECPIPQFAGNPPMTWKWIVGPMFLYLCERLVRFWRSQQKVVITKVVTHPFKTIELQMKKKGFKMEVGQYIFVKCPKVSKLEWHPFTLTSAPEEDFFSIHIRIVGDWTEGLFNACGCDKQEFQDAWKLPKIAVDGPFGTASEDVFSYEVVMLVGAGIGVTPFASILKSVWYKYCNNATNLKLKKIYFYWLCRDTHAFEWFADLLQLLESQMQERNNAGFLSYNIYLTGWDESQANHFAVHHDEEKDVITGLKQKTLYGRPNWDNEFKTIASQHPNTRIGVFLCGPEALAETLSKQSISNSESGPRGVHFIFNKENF
T1 sequence (P13498 1-195 partner): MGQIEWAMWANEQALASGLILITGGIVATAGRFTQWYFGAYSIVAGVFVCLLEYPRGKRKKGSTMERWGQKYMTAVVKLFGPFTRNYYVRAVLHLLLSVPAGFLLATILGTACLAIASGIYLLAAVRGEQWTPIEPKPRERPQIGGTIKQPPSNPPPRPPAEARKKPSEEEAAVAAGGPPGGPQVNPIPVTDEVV
Description: In the cell-based assay, superoxide production by NOX2 was measured in differentiated HL60 cells, a human myelomonocytic leukemia cell line, using either Oxyburst (Assay1) or L012 (Assay2). Differentiation of HL-60 cells to granulocytes increases NOX2 expression. The phorbol 12-myristate 13-acetate (PMA) was used to stimulate the production of superoxide in HL60 cells by activating protein kinase C, which then activated the NADPH oxidase (NOX) enzymes. Inhibition of NOX2 enzyme was detected by the reversal of fluorescence signal (Assay1) or luminescence signal (Assay2). The control inhibitor used was diphenyleneiodonium chloride (DPI), a […] inhibitor capable of non-selectively inhibiting superoxide produced by NOX enzymes.
Assay 1: in this high-throughput screening assay, oxyburst green bovine serum albumin (BSA) was used to detect superoxide production in HL60 cells. Oxidation of Oxyburst green BSA by hydrogen peroxide as a result of the activation of NOX2 by PMA. Oxyburst green BSA fluorescence was measured at excitation 485 nm and emission 530 nm.
Assay 2: in this assay, a chemiluminescence probe, L-012 was used to detect superoxide production in HL60 cells. L-012 reacted with various types of reactive oxygen species generated by PMA-activated HL60 cells. Luminescence was measured using Tecan Infinite 500.
The HL60 cells were differentiated into neutrophil-like cells by adding 1.3% DMSO in the media for 3-7 days (Hua, J et al. (2000) Journal of Leukocyte Biology. 68:216-224). Iscove's Modified Dulbecco's Media (IMDM) with L-Glutamine and 25 mM HEPES buffer, Fetal Bovine Serum (FBS), Penicillin/Streptomycin, Oxyburst Green BSA, PBS, and HBSS buffer with Calcium Chloride and Magnesium Chloride were purchased from Invitrogen (Catalog #s: 12440-061, 10500-064, 15140-163, O-13291, 14190-250, and 14025-134 respectively). Phorbol 12-myristate 13-acetate (PMA), glucose, and CHAPS were purchased from Sigma (Catalog #s: 79346, D-9434, and C5070 respectively). Diphenyleneiodonium chloride (DPI) was purchased from Toronto Research Chemicals (Catalog #: D491500). L-012 was purchased from Wako Chemical (Catalog #: 120-04891). Dimethyl sulfoxide (DMSO) was purchased EMD Chemicals (VWR Catalog #: MX1456-1). Multidrop combi was purchased from Thermo Electron Corporation (Waltham, Mass., USA). Hummingbird nanoliter liquid dispenser was purchased from Genomics Solution (Ann Arbor, Mich., USA). 384 well low-volume plates and polypropylene 384 well clear plates were purchased from Greiner (Catalog #: 784076 and 781280 respectively). 96 well plate and 384 well plate black assay plates were purchased from Greiner (Catalog #: 655094 and 781098). 96 well plate for compound serial dilution was purchased from Corning (Catalog #: 9017). Acquest or Analyst fluorescence plate reader was purchased from LJL Biosystems/Molecular Devices (California, USA). Tecan Infinite 500 was purchased from Tecan (Switzerland).
Media for HL60 cells were kept at 4° C. for storage and were warmed to 37° C. in a water bath before use. The media components were IMDM media with 20% FBS and 1% Penicillin/Streptomycin.
Buffer to be used for compound addition and compound dilution consisted of HBSS buffer with 0.1% glucose.
Buffer to be used for cells consisted of HBSS buffer with 0.1% glucose and 0.01% CHAPS.
HL60 cells were thawed and resuspended in Cells media. The cells were centrifuged at 1200 rpm for 8 minutes. Media was aspirated and the cells were resuspended in Cells buffer. The cells were counted and resuspended to 1×10^6 cells/mL.
Full inhibition controls were dispensed using 100 nL/well of 1 mM DPI in DMSO to column 18 of a 384 well plate. Compounds were dispensed using 100 nL/well. Full activity controls were dispensed using 100 nL/well of 4 uM PMA in DMSO. Oxyburst Green BSA was added to cell solution at 10 ug/mL. Using the Multidrop, 10 uL cell solution was added to the entire assay plate. The assay plate was incubated at room temperature for 100 minutes. […]

Structure (SMILES) | IC50 [µM]
COc1cccc(-c2c(C)sc3nc(C)cc(NS(=O)(=O)c4cccc(Cl)c4)c23)c1 [Example 1, 3-Chloro-N-{2,6-dimethyl-3-[3-(methyloxy)phenyl]thieno[2,3-b]pyridin-4-yl}-benzenesulfonamide] | < 100
COc1cccc(-c2c(C)sc3nc(C)cc(NS(=O)(=O)C4CCCCC4)c23)c1 [Example 8, N-{2,6-Dimethyl-3-[3-(methyloxy)phenyl]thieno[2,3-b]pyridin-4-yl}-cyclohexanesulfonamide] | < 100
COc1cccc(-c2c(C)sc3nc(C)cc(NS(=O)(=O)C4(Cl)CCN(C(=O)OCc5ccccc5)CC4)c23)c1 [Example 10, Phenylmethyl 4-chloro-4-[({2,6-dimethyl-3-[3-(methyloxy)phenyl]thieno[2,3-b]pyridin-4-yl}amino)sulfonyl]-1-piperidinecarboxylate] | < 100
COc1ccc(-c2c(C)sc3nc(C)cc(NS(=O)(=O)c4cccc(Cl)c4)c23)cc1 [Example 18, 3-Chloro-N-{2,6-dimethyl-3-[4-(methyloxy)phenyl]thieno[2,3-b]pyridin-4-yl}-benzenesulfonamide] | < 100
Cc1cc(NS(=O)(=O)c2cccc(Cl)c2)c2c(-c3ccc(Cl)c(Cl)c3)c(C)sc2n1 [Example 20, 3-Chloro-N-[3-(3,4-dichlorophenyl)-2,6-dimethylthieno[2,3-b]pyridin-4-yl]benzenesulfonamide] | < 100
COC(=O)c1sc2nc(C)cc(NS(=O)(=O)c3cccc(Cl)c3)c2c1-c1cccc(OC)c1 [Example 36, Methyl 4-{[(3-chlorophenyl)sulfonyl]amino}-6-methyl-3-[3-(methyloxy)phenyl]thieno[2,3-b]pyridine-2-carboxylate] | < 100
COc1cccc(-c2c(-c3cccnc3)sc3nc(C)cc(NS(=O)(=O)c4cccc(Cl)c4)c23)c1 [Example 41, 3-Chloro-N-[6-methyl-3-[3-(methyloxy)phenyl]-2-(3-pyridinyl)thieno[2,3-b]pyridin-4-yl]-benzenesulfonamide] | < 100
COc1cccc(-c2c(-c3ccco3)sc3nc(C)cc(NS(=O)(=O)c4cccc(Cl)c4)c23)c1 [Example 42, 3-Chloro-N-{2-(2-furanyl)-6-methyl-3-[3-(methyloxy)phenyl]thieno[2,3-b]pyridin-4-yl}-benzenesulfonamide] | < 100
COc1cccc(-c2c(-c3cccs3)sc3nc(C)cc(NS(=O)(=O)c4cccc(Cl)c4)c23)c1 [Example 44, 3-Chloro-N-[6-methyl-3-[3-(methyloxy)phenyl]-2-(2-thienyl)thieno[2,3-b]pyridin-4-yl]-benzenesulfonamide] | < 100
COc1cccc(-c2c(C(C)C)sc3nc(C)cc(NS(=O)(=O)c4cccc(Cl)c4)c23)c1 [Example 45, 3-Chloro-N-{6-methyl-2-(1-methylethyl)-3-[3-(methyloxy)phenyl]thieno[2,3-b]pyridin-4-yl}-benzenesulfonamide trifluoroacetate] | < 100
COc1ccc(-c2csc3nc(C)cc(NS(=O)(=O)c4cccc(Cl)c4)c23)cc1OC [Example 47, N-{3-[3,4-Bis(methyloxy)phenyl]-6-methylthieno[2,3-b]pyridin-4-yl}-3-chlorobenzenesulfonamide trifluoroacetate] | < 100
CCc1sc2nc(C)cc(NS(=O)(=O)c3cccc(Cl)c3)c2c1-c1cccc(N(C)C)c1 [Example 48, 3-Chloro-N-{3-[3-(dimethylamino)phenyl]-2-ethyl-6-methylthieno[2,3-b]pyridin-4-yl}benzenesulfonamide trifluoroacetate] | < 100
COc1cccc(-c2c(C)sc3nc(C)cc(NS(=O)(=O)c4cncc(Br)c4)c23)c1 [Example 52, 5-Bromo-N-{2,6-dimethyl-3-[3-(methyloxy)phenyl]thieno[2,3-b]pyridin-4-yl}-3-pyridinesulfonamide trifluoroacetate] | < 100
COc1cccc(-c2c(-c3ccoc3)sc3nc(C)cc(NS(=O)(=O)c4cccc(Cl)c4)c23)c1 [Example 57, 3-Chloro-N-{2-(3-furanyl)-6-methyl-3-[3-(methyloxy)phenyl]thieno[2,3-b]pyridin-4-yl}-benzenesulfonamide] | < 100
COc1cccc(-c2c(-c3cn[nH]c3)sc3nc(C)cc(NS(=O)(=O)c4cccc(Cl)c4)c23)c1 [Example 58, 3-Chloro-N-[6-methyl-3-[3-(methyloxy)phenyl]-2-(1H-pyrazol-4-yl)thieno[2,3-b]pyridin-4-yl]benzenesulfonamide] | < 100
COc1cccc(-c2csc3nccc(NS(=O)(=O)c4cccc(Cl)c4)c23)c1 [Example 62, 3-Chloro-N-{3-[3-(methyloxy)phenyl]thieno[2,3-b]pyridin-4-yl}benzenesulfonamide] | < 100
Cc1cc(NS(=O)(=O)c2cccc(Cl)c2)c2c(-c3cn[nH]c3)c(C)sc2n1 [Example 63, 3-Chloro-N-[2,6-dimethyl-3-(1H-pyrazol-4-yl)thieno[2,3-b]pyridin-4-yl]benzenesulfonamide] | < 100
COc1cncc(-c2c(C)sc3nc(C)cc(NS(=O)(=O)c4cccc(Cl)c4)c23)c1 [Example 67, 3-Chloro-N-{2,6-dimethyl-3-[5-(methyloxy)-3-pyridinyl]thieno[2,3-b]pyridin-4-yl}benzenesulfonamide] | < 100
Cc1cccc(-c2c(C)sc3nc(C)cc(NS(=O)(=O)c4cccc(Cl)c4)c23)c1 [Example 69, 3-Chloro-N-[2,6-dimethyl-3-(3-methylphenyl)thieno[2,3-b]pyridin-4-yl]benzenesulfonamide] | < 100
Cc1cc(NS(=O)(=O)c2cccc(Cl)c2)c2c(-c3cccc(CNC(=O)OC(C)(C)C)c3)c(C)sc2n1 [Example 70, 1,1-Dimethylethyl {[3-(4-{[(3-chlorophenyl)sulfonyl]amino}-2,6-dimethylthieno[2,3-b]pyridin-3-yl)phenyl]methyl}carbamate] | < 100
Cc1cc(NS(=O)(=O)c2cccc(Cl)c2)c2c(C)c(-c3cn[nH]c3)sc2n1 [Example 76, 3-Chloro-N-[3,6-dimethyl-2-(1H-pyrazol-4-yl)thieno[2,3-b]pyridin-4-yl]benzenesulfonamide] | < 100
